Several values for one entry are separate records, joined by “and”; a condition that tells them apart may be missing. Equal entries are not always repeated. Toxic doses and inconclusive results are not listed. Cut-off read from the data, not from the text of the source: active = T/C of 150% or more; inactive = T/C below 125%.
Tested on: L1210 leukemia ip in BDF1 mice, survival T/C
Test: NCI In Vivo Anticancer Drug Screen. Data for tumor model L1210 Leukemia (intraperitoneal) in B6D2F1 (BDF1) mice
Conditions: endpoint: mean survival time, higher = longer survival
Summary of the method: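 Each compound was tested against a transplantable tumor grown in mice. The endpoint was survival, with treated animals benchmarked against vehicle controls as a simple ratio.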

[1] = dose: 12.5 mg/kg/injection, schedule: Q04DX003 (ip), vehicle: saline
[2] = dose: 25.0 mg/kg/injection, schedule: Q04DX003 (ip), vehicle: saline
[3] = dose: 100.0 mg/kg/injection, schedule: Q01DX001 (ip), vehicle: Klucel (hydroxypropylcellulose) (HPC)
[4] = dose: 100.0 mg/kg/injection, schedule: Q01DX009 (ip), vehicle: Klucel (hydroxypropylcellulose) (HPC)
[5] = dose: 100.0 mg/kg/injection, schedule: Q04DX002 (ip), vehicle: Klucel (hydroxypropylcellulose) (HPC)
[6] = dose: 100.0 mg/kg/injection, schedule: Q04DX003 (ip), vehicle: Klucel (hydroxypropylcellulose) (HPC)
[7] = dose: 200.0 mg/kg/injection, schedule: Q01DX001 (ip), vehicle: Klucel (hydroxypropylcellulose) (HPC)
[8] = dose: 200.0 mg/kg/injection, schedule: Q01DX009 (ip), vehicle: Klucel (hydroxypropylcellulose) (HPC)
[9] = dose: 200.0 mg/kg/injection, schedule: Q04DX002 (ip), vehicle: Klucel (hydroxypropylcellulose) (HPC)
[10] = dose: 200.0 mg/kg/injection, schedule: Q04DX003 (ip), vehicle: Klucel (hydroxypropylcellulose) (HPC)
[11] = dose: 400.0 mg/kg/injection, schedule: Q01DX001 (ip), vehicle: Klucel (hydroxypropylcellulose) (HPC)
[12] = dose: 400.0 mg/kg/injection, schedule: Q01DX009 (ip), vehicle: Klucel (hydroxypropylcellulose) (HPC)
[13] = dose: 400.0 mg/kg/injection, schedule: Q04DX002 (ip), vehicle: Klucel (hydroxypropylcellulose) (HPC)
[14] = dose: 400.0 mg/kg/injection, schedule: Q04DX003 (ip), vehicle: Klucel (hydroxypropylcellulose) (HPC)
[15] = dose: 100.0 mg/kg/injection, schedule: Q04DX002 (ip), vehicle: saline
[16] = dose: 200.0 mg/kg/injection, schedule: Q04DX002 (ip), vehicle: saline
[17] = dose: 400.0 mg/kg/injection, schedule: Q04DX002 (ip), vehicle: saline
[18] = dose: 50.0 mg/kg/injection, schedule: Q01DX001 (ip), vehicle: saline
[19] = dose: 100.0 mg/kg/injection, schedule: Q01DX001 (ip), vehicle: saline
[20] = dose: 200.0 mg/kg/injection, schedule: Q01DX001 (ip), vehicle: saline
[21] = dose: 400.0 mg/kg/injection, schedule: Q01DX001 (ip), vehicle: saline
[22] = dose: 100.0 mg/kg/injection, schedule: Q04DX003 (ip), vehicle: saline
[23] = dose: 200.0 mg/kg/injection, schedule: Q04DX003 (ip), vehicle: saline

Measured: T/C

Nc1ccc(O)cc1
inactive: [1] 92 % of control | [2] 95 % of control | dose: 35.0 mg/kg/injection, schedule: Q01DX Z (ip), vehicle: acid diluted with saline 92 % of control | dose: 35.0 mg/kg/injection, schedule: Q01DX Z (ip), vehicle: other 97 % of control | dose: 40.0 mg/kg/injection, schedule: Q01DX Z (ip), vehicle: methylcellulose (MC) 113 % of control | dose: 53.0 mg/kg/injection, schedule: Q01DX010 (sc), vehicle: saline 94 % of control | dose: 53.0 mg/kg/injection, schedule: Q01DX Z (ip), vehicle: acid diluted with saline 104 % of control | dose: 53.0 mg/kg/injection, schedule: Q01DX Z (ip), vehicle: other 103 % of control | dose: 53.0 mg/kg/injection, schedule: Q01DX Z (ip), vehicle: saline 98 % of control | dose: 80.0 mg/kg/injection, schedule: Q01DX Z (ip), vehicle: acid diluted with saline 108 % of control | dose: 80.0 mg/kg/injection, schedule: Q01DX Z (ip), vehicle: other 101 % of control | dose: 80.0 mg/kg/injection, schedule: Q01DX Z (ip), vehicle: saline 114 % of control | dose: 120.0 mg/kg/injection, schedule: Q01DX010 (sc), vehicle: saline 98 % of control | dose: 120.0 mg/kg/injection, schedule: Q01DX Z (ip), vehicle: acid diluted with saline 115 % of control | dose: 120.0 mg/kg/injection, schedule: Q01DX Z (ip), vehicle: other 114 % of control | dose: 120.0 mg/kg/injection, schedule: Q01DX Z (ip), vehicle: saline 112 % of control | dose: 160.0 mg/kg/injection, schedule: Q01DX Z (oral), vehicle: methylcellulose (MC) 113 % of control | dose: 212.0 mg/kg/injection, schedule: Q01DX013 (oral), vehicle: saline 109 % of control | dose: 320.0 mg/kg/injection, schedule: Q01DX Z (ip), vehicle: methylcellulose (MC) 107 % of control | dose: 320.0 mg/kg/injection, schedule: Q01DX Z (oral), vehicle: methylcellulose (MC) 108 % of control

O=C(Nc1cccc(C(F)(F)F)c1)Oc1ccc(F)cc1
inactive: [3] 104 % of control | [4] 107 % of control and 116 % of control | [5] 92 % of control | [6] 94 % of control | [7] 109 % of control | [8] 104 % of control and 115 % of control | [9] 93 % of control and 92 % of control | [10] 99 % of control | [11] 98 % of control | [12] 104 % of control and 113 % of control | [13] 102 % of control and 108 % of control | [14] 105 % of control

COc1cc(Br)c(CC2c3cc(OCc4ccccc4)c(OC)cc3CCN2C)cc1OC (stereo not drawn)
inactive: dose: 100.0 mg/kg/injection, schedule: Q04DX003 (ip), vehicle: acetone 112 % of control

CC([NH-])C(=O)O.CC([NH-])C(=O)O.[Ni+2] (stereo not drawn)
inactive: dose: 3.12 mg/kg/injection, schedule: Q01DX009 (ip), vehicle: saline 98 % of control | dose: 6.25 mg/kg/injection, schedule: Q01DX009 (ip), vehicle: saline 101 % of control | dose: 6.25 mg/kg/injection, schedule: Q04DX003 (ip), vehicle: saline 102 % of control | dose: 12.5 mg/kg/injection, schedule: Q01DX009 (ip), vehicle: saline 95 % of control | [1] 98 % of control and 104 % of control | [2] 105 % of control and 109 % of control | dose: 50.0 mg/kg/injection, schedule: Q04DX003 (ip), vehicle: saline 101 % of control

CCCCCCP(=O)(CCCCCC)C1CCCC1
inactive: dose: 100.0 mg/kg/injection, schedule: Q04DX003 (ip), vehicle: saline with Tween-80 91 % of control | dose: 200.0 mg/kg/injection, schedule: Q04DX003 (ip), vehicle: saline with Tween-80 92 % of control

O=[N+]([O-])c1c(Cl)nc2sccn12
inactive: [15] 106 % of control | [16] 109 % of control | [17] 90 % of control

O=C(NC1CCCCC1)C(=O)NC1CCCCC1
inactive: [18] 102 % of control | [19] 98 % of control | [5] 89 % of control | [20] 98 % of control | [9] 95 % of control | [21] 96 % of control | [13] 103 % of control

O=c1[nH]c(=O)n(C2OC(CO)C(O)C2O)cc1CCC(F)F (stereo not drawn)
inactive: dose: 100.0 mg/kg/injection, schedule: Q04DX002 (ip), vehicle: other 105 % of control | dose: 200.0 mg/kg/injection, schedule: Q04DX002 (ip), vehicle: other 102 % of control

CC(=O)c1cc(C)c(C)cc1C
inactive: dose: 100.0 mg/kg/injection, schedule: Q01DX001 (ip), vehicle: carboxymethylcellulose (CMC) 100 % of control | dose: 200.0 mg/kg/injection, schedule: Q01DX001 (ip), vehicle: carboxymethylcellulose (CMC) 94 % of control | dose: 400.0 mg/kg/injection, schedule: Q01DX001 (ip), vehicle: carboxymethylcellulose (CMC) 97 % of control

O=C1C(O)=C(Cl)C(=O)C(OC2=C(Cl)C(=O)C(OC3=C(Cl)C(=O)C(OC4=C(Cl)C(=O)C(Cl)=C(Cl)C4=O)=C(Cl)C3=O)=C(Cl)C2=O)=C1Cl
inactive: [22] 97 % of control | [23] 105 % of control

CC(c1ccccc1)C(C)(C#N)c1ccccc1 (stereo not drawn)
inactive: [18] 97 % of control | [19] 100 % of control | [20] 100 % of control | [21] 103 % of control

O=[N+]([O-])/C=C/c1ccc(Br)cc1
inactive: dose: 75.0 mg/kg/injection, schedule: Q01DX001 (ip), vehicle: saline 95 % of control

CC1=CCc2c(NS(=O)(=O)N(C)C)ccc(NS(=O)(=O)N(C)C)c2C1
inactive: [3] 101 % of control | [6] 94 % of control | [7] 97 % of control | [10] 93 % of control | [11] 97 % of control | [14] 91 % of control

CC1C(=O)OC2CC[N+]3(C(C)C)CC=C(COC(=O)C(C)(O)C1(C)O)C23 (stereo not drawn)
inactive: dose: 50.0 mg/kg/injection, schedule: Q01DX009 (ip), vehicle: saline 100 % of control | dose: 100.0 mg/kg/injection, schedule: Q01DX009 (ip), vehicle: saline 106 % of control | dose: 200.0 mg/kg/injection, schedule: Q01DX009 (ip), vehicle: saline 106 % of control

C=CCOC(=O)C1(O)c2ccccc2NC(=S)N1CC=C (stereo not drawn)
inactive: [4] 104 % of control | [5] 97 % of control | [8] 93 % of control | [9] 97 % of control | [12] 93 % of control | [13] 100 % of control

Cc1ccc2c(c1[N+](=O)[O-])C(=O)c1ccccc1C2=O
inactive: [18] 96 % of control | [19] 90 % of control | [4] 100 % of control | [5] 104 % of control | [20] 90 % of control | [9] 110 % of control | [21] 90 % of control | [12] 111 % of control | [13] 96 % of control

S=C=NCc1cccc(CN=C=S)c1
inactive: dose: 6.25 mg/kg/injection, schedule: Q01DX009 (ip), vehicle: saline with Tween-80 103 % of control

O=P(c1ccccc1)(N1CCCC1)N1CCCC1
inactive: [22] 95 % of control | [23] 92 % of control

O=[N+]([O-])c1ccc(C2=NCCO2)cc1
inactive: [15] 104 % of control | [16] 114 % of control | [17] 104 % of control

O=C(c1ccccc1)C1CC1c1ccccc1 (stereo not drawn)
inactive: dose: 75.0 mg/kg/injection, schedule: Q01DX001 (ip), vehicle: Klucel (hydroxypropylcellulose) (HPC) 96 % of control | dose: 75.0 mg/kg/injection, schedule: Q04DX002 (ip), vehicle: saline with Tween-80 105 % of control | [22] 101 % of control | dose: 150.0 mg/kg/injection, schedule: Q01DX001 (ip), vehicle: Klucel (hydroxypropylcellulose) (HPC) 100 % of control | dose: 150.0 mg/kg/injection, schedule: Q04DX002 (ip), vehicle: saline with Tween-80 91 % of control | [23] 93 % of control | dose: 300.0 mg/kg/injection, schedule: Q01DX001 (ip), vehicle: Klucel (hydroxypropylcellulose) (HPC) 102 % of control | dose: 300.0 mg/kg/injection, schedule: Q04DX002 (ip), vehicle: saline with Tween-80 98 % of control | dose: 400.0 mg/kg/injection, schedule: Q04DX003 (ip), vehicle: saline 103 % of control
